# Test results taken from patent US10676440B2, “Crystalline forms of an NK-1 antagonist” (Helsinn Healthcare SA, priority 2014, dated 2020).
# Tests used:
# Assay type in all cases: physicochemical
# [1] = Moisture adsorption/desorption (DVS), hygroscopicity
# Experimental: Moisture Adsorption/Desorption data was collected on a DVS-1 (SMS Surface Measurements Systems) moisture balance system. The sorption/desorption isotherms were measured stepwise in a range of 0% RH to 90% RH at 25° C. A weight change of <0.002 mg/min was chosen as the criterion to switch to the next level of relative humidity (with a maximum equilibration time of 6 hours if the weight criterion was not met). The data were corrected for the initial moisture content of the samples so that the weight after drying the sample at 0% relative humidity was taken as the zero point. The hygroscopicity of a given substance was characterized, in accordance with the European Phamacopoeia (Technical Guide 1999), by the increase in mass when the relative humidity is raised from 0% RH to 90% RH, as defined below (where weight increase=x):
# Slightly hygroscopic: 0.2%≤x<2.0%
# Very hygroscopic: x≥15.0%
# Deliquescent: Sufficient liquid as adsorbed to form a liquid
# [2] = Stability of ground and kneaded Form I by XRPD; settings: ball milling 10 min
# Experimental: An untreated sample of Form I was ground by ball milling in a Retsch MM 200 grinder for 10 min at a frequency of 30 Hz. The sample was then analyzed by XRPD to determine its diffraction pattern. The stability of the ground sample was determined by comparing the diffraction pattern of the ground sample with that of the reference sample. […] In FIG. 26, the XRPD pattern for the Form I reference sample is shown in black and the pattern for the ground sample is shown in blue.
# An untreated sample of Form I was ground by ball milling in a Retsch MM 200 grinder for 10 min at a frequency of 30 Hz with a catalytic amount of water. The sample was then analyzed by XRPD to determine its diffraction pattern. The stability of the kneaded sample was determined by comparing the diffraction pattern of the kneaded sample with that of the reference sample. […] In FIG. 27, the XRPD pattern for the Form I reference sample is shown in black and the XRPD pattern for the kneaded sample is shown in red.
# [3] = Gravimetric solubility of Form I in solvents
# Experimental: Solubility was determined gravimetrically. A weighted sample of Form I was suspended in a defined amount of solvent. After equilibration and solvent-liquid separation, the weight of the saturated liquid was determined. The solvent was then evaporated, the solid residue dried to dryness and weighed. The solubility is reported as weight of solid substance dissolved divided by the weight of the solution.
# [4] = Approximate solubility in water at rt
structure (smiles),measurement,setting,value
"Cc1ccccc1-c1cc(N2CCN(C)CC2)ncc1N(C)C(=O)C(C)(C)c1cc(C(F)(F)F)cc(C(F)(F)F)c1 [Form I, 2-(3,5-bis(trifluoromethyl)phenyl)-N,2-dimethyl-N-(6-(4-methylpiperazin-1-yl)-4-(o-tolyl)pyridin-3-yl)propanamide]",Hygroscopicity (weight change 0 to 90%-RH),"[1]; 25° C., 0% RH to 90% RH",0.1%
same,Hygroscopicity classification,"[1]; 25° C., 0% RH to 90% RH, European Pharmacopoeia classes",non-hygroscopic
same,weight gain during the drying step and the first adsorption segment,"[1]; first cycle, likely due to electrostatic charges",about 0.3%
same,weight loss in the second cycle,[1]; second cycle,0.1%
same,stability of the ground sample (XRPD vs reference),[2]; 30 Hz,loss of crystallinity
same,stability of the kneaded sample (XRPD vs reference),[2]; 30 Hz with a catalytic amount of water,increased degree of crystallinity
same,Solubility (% m/m),"[3]; 25° C., 1-Butanol",>11.6 % m/m
same,Solubility (% m/m),"[3]; 25° C., 2-Butanone",>11.2 % m/m
same,Solubility (% m/m),"[3]; 25° C., Acetone",>11.1 % m/m
same,Solubility (% m/m),"[3]; 25° C., Acetonitrile",9 % m/m
same,Solubility (% m/m),"[3]; 25° C., Cyclohexane",4.2 % m/m
same,Solubility (% m/m),"[3]; 25° C., Dichloroethane",>7.0 % m/m
same,Solubility (% m/m),"[3]; 25° C., Dioxane",>9.0 % m/m
same,Solubility (% m/m),"[3]; 25° C., Ethanol",>11.5 % m/m
same,Solubility (% m/m),"[3]; 25° C., Heptane",1.2 % m/m
same,Solubility (% m/m),"[3]; 25° C., Isopropyl Acetate",22.2 % m/m
same,Solubility (% m/m),"[3]; 25° C., Methanol",>11.9 % m/m
same,Solubility (% m/m),"[3]; 25° C., N,N-Dimethylformamide",>9.9 % m/m
same,Solubility (% m/m),"[3]; 25° C., Tetrahydrofuran",>9.9 % m/m
same,Solubility (% m/m),"[3]; 25° C., Toluene",>10.8 % m/m
same,Solubility (% m/m),"[3]; 25° C., Trifluoroethanol",>7.5 % m/m
same,Solubility (% m/m),"[3]; 25° C., Water",<0.1 % m/m
same,Solubility (% m/m),"[3]; 25° C., Water/Acetone 1:2",7.0 % m/m
same,Solubility (% m/m),"[3]; 25° C., Water/Acetone 2:1",0.2 % m/m
same,Solubility (% m/m),"[3]; 25° C., Water/Acetonitrile 1:2",6.2 % m/m
same,Solubility (% m/m),"[3]; 25° C., Water/Acetonitrile 2:1",0.5 % m/m
same,Solubility (% m/m),"[3]; 25° C., Water/Dioxane 1:2",4.9 % m/m
same,Solubility (% m/m),"[3]; 25° C., Water/Dioxane 2:1",0.1 % m/m
same,Solubility (% m/m),"[3]; 25° C., Water/Ethanol 1:2",3.1 % m/m
same,Solubility (% m/m),"[3]; 25° C., Water/Ethanol 2:1",0.1 % m/m
same,Solubility (% m/m),"[3]; 25° C., Water/Methanol 1:2",1.0 % m/m
same,Solubility (% m/m),"[3]; 25° C., Water/Methanol 2:1",0.2 % m/m
same,Solubility (% m/m),"[3]; 25° C., Xylene",18.4 % m/m
same,Solubility (% m/m),"[3]; 60° C., 1-Butanol",29.9 % m/m
same,Solubility (% m/m),"[3]; 60° C., 2-Butanone",>52.6 % m/m
same,Solubility (% m/m),"[3]; 60° C., 2-Propanol",26.2 % m/m
same,Solubility (% m/m),"[3]; 60° C., Acetone",>53.3 % m/m
same,Solubility (% m/m),"[3]; 60° C., Acetonitrile",14.4 % m/m
same,Solubility (% m/m),"[3]; 60° C., Cyclohexane",16.0 % m/m
same,Solubility (% m/m),"[3]; 60° C., Dichloroethane",34.7 % m/m
same,Solubility (% m/m),"[3]; 60° C., Dioxane",>41.6 % m/m
same,Solubility (% m/m),"[3]; 60° C., Ethanol",33.1 % m/m
same,Solubility (% m/m),"[3]; 60° C., Ethyl Acetate",45.9 % m/m
same,Solubility (% m/m),"[3]; 60° C., Heptane",3.0 % m/m
same,Solubility (% m/m),"[3]; 60° C., Isopropyl Acetate",>35.0 % m/m
same,Solubility (% m/m),"[3]; 60° C., Methanol",48.4 % m/m
same,Solubility (% m/m),"[3]; 60° C., N,N-Dimethylformamide",40.7 % m/m
same,Solubility (% m/m),"[3]; 60° C., Tetrahydrofuran",>50.4 % m/m
same,Solubility (% m/m),"[3]; 60° C., Toluene",48.8 % m/m
same,Solubility (% m/m),"[3]; 60° C., Trifluoroethanol",>39.1 % m/m
same,Solubility (% m/m),"[3]; 60° C., Water",<0.1 % m/m
same,Solubility (% m/m),"[3]; 60° C., Water/Acetone 1:2",11.7 % m/m
same,Solubility (% m/m),"[3]; 60° C., Water/Acetone 2:1",<0.1 % m/m
same,Solubility (% m/m),"[3]; 60° C., Water/Acetonitrile 1:2",6.4 % m/m
same,Solubility (% m/m),"[3]; 60° C., Water/Acetonitrile 2:1",<0.1 % m/m
same,Solubility (% m/m),"[3]; 60° C., Water/Dioxane 1:2",21.1 % m/m
same,Solubility (% m/m),"[3]; 60° C., Water/Dioxane 2:1",<0.1 % m/m
same,Solubility (% m/m),"[3]; 60° C., Water/Ethanol 1:2",5.5 % m/m
same,Solubility (% m/m),"[3]; 60° C., Water/Ethanol 2:1",<0.1 % m/m
same,Solubility (% m/m),"[3]; 60° C., Water/Methanol 1:2",0.4 % m/m
same,Solubility (% m/m),"[3]; 60° C., Water/Methanol 2:1",<0.1 % m/m
same,Solubility (% m/m),"[3]; 60° C., Xylene",>35.0 % m/m
"Cc1ccccc1-c1cc(N2CCN(C)CC2)ncc1N(C)C(=O)C(C)(C)c1cc(C(F)(F)F)cc(C(F)(F)F)c1 [Form III, 2-(3,5-bis(trifluoromethyl)phenyl)-N,2-dimethyl-N-(6-(4-methylpiperazin-1-yl)-4-(o-tolyl)pyridin-3-yl)propanamide]",solubility,[4],< 1000 µg/mL
